The source of these data is PMC9879440, “Heterozygous deletion of Gpr55 does not affect a hyperthermia-induced seizure, spontaneous seizures or survival in the Scn1a^+/^- mouse model of Dravet syndrome” (PLOS ONE, 2023).

Data set [1] has as its system GPR55. Details: method as in PubChem AID 2013. Conditions: image-based HTS; ref PubChem AID 2013; read-out: IC50 value as GPR55 antagonist; cited from earlier work.
A short description of data set [2]: Pharmacokinetic analysis in mouse plasma and brain after a single i.p. injection. The data set is classed as in vivo. On the procedure:
A pharmacokinetic study was conducted for CID2921524 (MolPort; Riga, LVA) to determine the target experimental time point for the hyperthermia-induced seizure protocol. Male and female wildtype mice (P21-28) received a single intraperitoneal (i.p.) injection of 10 mg/kg CID2921524 in ethanol-Tween 80-saline (1:1:18) with an injection volume of 10 mL/kg. At selected time points, mice were anaesthetized with isoflurane and whole blood was collected via cardiac puncture. Plasma was isolated by centrifugation, whole brain was also collected and samples were stored at -80°C until assayed.
Plasma and brain samples were prepared for analysis of CID2921524 concentrations as previously described. Samples were assayed by LC-MS/MS using a Shimadzu Nexera ultra-HPLD coupled to a Shimadzu 8030 triple quadrupole mass spectrometer (Shimadzu Corp.; Kyoto, JPN) operated in positive electrospray ionization mode with multiple reaction monitoring with 376.3 > 121.1 and 376.2 > 77.0 mass transition pairs. Quantification was achieved by comparing experimental samples to standards prepared with known amounts of drug.
(§1) Normality of each dataset was assessed using the Shapiro-Wilk test. Concentrations of CID2921524 in plasma and brain at each time point were averaged and pharmacokinetic parameters were calculated by noncompartmental analysis as previously described. Seizure threshold temperatures were compared using Mantel-Cox logrank test. Spontaneous seizure data were analysed using two-way ANOVA (seizure frequency and seizure severity), Fisher’s exact test (proportion of mice seizure-free) or Mantel-Cox logrank test (survival). RT-ddPCR data were analysed using two-way ANOVA. All results p < 0.05 were considered statistically significant.

For data set [3], the system named is F1.Scn1a+/- mice. Kind of data set: Hyperthermia-induced seizures in F1.Scn1a+/- mouse model of Dravet syndrome. The data set is classed as in vivo. Details: key to Threshold temperature of individual mice for GTCS induced by hyperthermia: core body temperature in °C at first clonic convulsion. On the procedure: Hyperthermia-induced seizure experiments were conducted on male and female F1.Scn1a^+/- and F1.Scn1a^+/-;Gpr55^+/- mice at P14-16 as previously described. Briefly, a RET-3 rectal temperature probe was inserted and mice acclimated for 5 min before mouse core body temperature was elevated 0.5°C every 2 min until the onset of first clonic convulsion with loss of posture or until 42.5°C was reached. For hyperthermia-induced seizure experiments with CID2921524, mice received a single i.p. injection of vehicle or CID2921524 at an injection volume of 10 mL/kg following the 5 min acclimation period.
as §1

On the set-up of data set [4]: method as in PMID 28973916. The conditions noted are these: cited from earlier work.
The mark [5] stands for this setting: both sexes, brain, intraperitoneal, wildtype mice P21-28, 10 mg/kg i.p., n = 4, read-out: Brain concentration, average.
Setting [6] is: both sexes, plasma, intraperitoneal, wildtype mice P21-28, 10 mg/kg i.p., n = 4, read-out: Plasma concentration, average.

Usually pIC50 stands for the negative decadic logarithm of the IC50, by convention in mol/L.

SMILES strings stand for the structures. pIC50: −log10 of the molar value. Values joined by “and” are separate entries in the source; they are usually repeats but may differ in a detail not shown here. Equal values may be shown once. Read-outs that look alike come from different tables or passages of the source.

As to `COc1ccc(CNCCC(c2ccccc2)c2ccc3c(c2)OCO3)cc1` (centres unmarked) [CID2921524], the pIC50 in data set [1] was 6.02. In data set [2] (10 mg/kg i.p.), the brain penetrance result is given as “brain penetrant”. In addition, in data set [2] (10 mg/kg i.p., free-fraction unknown), the “total concentration achieved in the brain” value is ~ 5 μM. The Kp in data set [2] (both sexes, brain and plasma, ip, 10 mg/kg i.p., read-out: brain-plasma ratio (total exposure by AUC values)) came out at 1.4. In data set [2] (setting [5]), the concentration at 15 min was found to be 1820 ng/g, the concentration at 30 min stood at 1530 ng/g, the concentration at 60 min was 1210 ng/g and the concentration at 90 min came out at 1310 ng/g. Moreover, the concentration at 120 min in data set [2] (setting [5]) turned out to be 1550 ng/g. In addition, in data set [2] (setting [6]), the concentration at 15 min is 1960 ng/mL, the concentration at 30 min came to 1420 ng/mL, the concentration at 60 min was found to be 1370 ng/mL and the concentration at 90 min was determined as 1020 ng/mL. For the same compound, the concentration at 120 min in data set [2] (setting [6]) was 1090 ng/mL. In addition, the concentration at 45 min in data set [2] (both sexes, plasma, intraperitoneal, wildtype mice P21-28, 10 mg/kg i.p., 45 min, n = 4) was 1400 ng/mL. Also, in data set [2] (i.p. administration), the “absorption into plasma and brain” value is reported as “rapidly absorbed”; the “half-lives in plasma and brain” value is “relatively long half-lives”. Further, the “Threshold temperature of individual mice for GTCS induced by hyperthermia” value in data set [3] (F1.Scn1a+/- mice P14-16, male and female, 10 mg/kg i.p. acute, one value per mouse, n = 12, core body temperature (°C), 10 mg/kg, in °C) is 41.2 and 40.3 and 40.2 and 40.8 and 41.5 and 40.7 and 38.9 and 39.9 and 41 and 40.6 and 39.6. In addition, in data set [3] (F1.Scn1a+/- mice, 10 mg/kg i.p. vs vehicle, Mantel-Cox logrank), the “effect on a hyperthermia-induced seizure (GTCS temperature threshold)” value was “no effect”.

For `CCOc1ccc(N(CC)C(=O)c2nn(-c3ccc(OC)cc3)c(=O)c3c2c2ccccc2n3C)cc1` [CID16020064], in data set [4], the brain penetrance entry is on record as “not brain penetrant”.
